Key:
Assay type in all cases: cell-based, human
H-bc = test: MTT cell survival / IC50, H-bc cells; conditions: for Cell survival 72 hours / ACS (%): H-bc cells; for Cell survival 72 hours: Table 4 (A); for ACS (%): Table 4 (B); for Cell survival (%) / Single drug 4X Cell Survival (%): H-bc; for Cell survival (%): Table S3, ng/ml: Pi 40, Pa 160, EH 250, Ci 1500, Mi 200, 1=Ci/Mi, 2=EH/Ci/Mi, 3=Pa/Ci/Mi, 4=Pi/Ci/Mi; for Single drug 4X Cell Survival (%): ng/ml: EH 1000, Ci 6000, Mi 800, Pi 160, Pa 640, Ge 20, EH/Ci/Mi regimen
Description: (§1) The clinical grade of the chemotherapeutics (NCI Dictionary of Cancer Terms) was provided by the First Affiliated Hospital of Harbin Medical University: Pirarubicin (Pi, Wanle, Shenzhen), Paclitaxel (Pa, Taiji, Sichuan), Adriamycin (Ad, Pfizer, Jiangsu), Epirubicin Hydrochloride (EH, Haizheng, Zhejiang), Hydroxycamptothecin (Hy, Lishizhen, Hubei), Cisplatin (Ci, Haosen, Jiangsu), Gemcitabine (Ge, Haosen, Jiangsu) and Mitomycin (Mi, Haizheng, Zhejiang). The drug induced cell death was determined by a thiazolyl […] (MTT, 490 nm reading) based cell proliferation assay in the cultured cells following treatment by various concentrations of drugs for 72 hours. The relative chemoresistance to each drug of all cell lines was calculated with the lowest IC50 as a reference. The overall chemoresistance of each cell line was described as “chemoresistance index”, the numerator of the total relative IC50 to all the drugs over the number of drugs to rank the overall resistance state of each cell line to the six chemotherapeutics collectively.
(§2) The relative IC50 (fold) of each drug of all nine cell lines was normalized to the lowest IC50 in the most sensitive cell line (FIG. 2G), to describe the single drug resistance of cell lines. The overall chemoresistance of each cell line, a “chemoresistance index” (the numerator of the total relative IC50 over the number of drugs) (FIG. 2G) were calculated to rank the overall resistance state of each cell line to this six chemotherapeutics.
(§3) Twenty six-drug combinations at the indicated doses were initially generated through a random number generator (using MATLAB MathWorks©, Natick, Mass., U.S.) (The upper half of Table 1). The cell survival (% over the not drug control) of treated cells was determined and then used for a calculation of the average cumulative cell survival (%, ACS: the sum of cell survival (%) per combination divided by the number of cell lines tested). ACS<30% was used to separate the effective from the not-effective combinations.

EJ = test: MTT cell survival / IC50, EJ cells; conditions: for Cell survival (%): Table S3, ng/ml: Pi 40, Pa 160, EH 250, Ci 1500, Mi 200, 1=Ci/Mi, 2=EH/Ci/Mi, 3=Pa/Ci/Mi, 4=Pi/Ci/Mi; for Single drug 4X Cell Survival (%): ng/ml: EH 1000, Ci 6000, Mi 800, Pi 160, Pa 640, Ge 20, EH/Ci/Mi regimen
Description: as §1, §2, §3

Biu87 = test: MTT cell survival / IC50, Biu87 cells; conditions: for Cell survival (%) / Single drug 4X Cell Survival (%): Biu87; for Cell survival (%): Table S3, ng/ml: Pi 40, Pa 160, EH 250, Ci 1500, Mi 200, 1=Ci/Mi, 2=EH/Ci/Mi, 3=Pa/Ci/Mi, 4=Pi/Ci/Mi; for Single drug 4X Cell Survival (%): ng/ml: EH 1000, Ci 6000, Mi 800, Pi 160, Pa 640, Ge 20, EH/Ci/Mi regimen; for Cell survival 72 hours / ACS (%): Biu87 cells; for Cell survival 72 hours: Table 4 (A); for ACS (%): Table 4 (B)
Description: as §1, §2, §3

UM-UC-3 = test: MTT cell survival / IC50, UM-UC-3 cells; conditions: for Cell survival (%) / Single drug 4X Cell Survival (%): UM-UC-3; for Cell survival (%): Table S3, ng/ml: Pi 40, Pa 160, EH 250, Ci 1500, Mi 200, 1=Ci/Mi, 2=EH/Ci/Mi, 3=Pa/Ci/Mi, 4=Pi/Ci/Mi; for Single drug 4X Cell Survival (%): ng/ml: EH 1000, Ci 6000, Mi 800, Pi 160, Pa 640, Ge 20, EH/Ci/Mi regimen; for ACS (%): UM-UC-3 cells, Table 4 (B); for Cell survival 72 hours: Um-Uc-3 cells, Table 4 (A)
Description: as §1, §2, §3

SCaBER = test: MTT cell survival / IC50, SCaBER squamous carcinoma cells; conditions: for Cell survival (%): Table S3, ng/ml: Pi 40, Pa 160, EH 250, Ci 1500, Mi 200, 1=Ci/Mi, 2=EH/Ci/Mi, 3=Pa/Ci/Mi, 4=Pi/Ci/Mi; for Single drug 4X Cell Survival (%): ng/ml: EH 1000, Ci 6000, Mi 800, Pi 160, Pa 640, Ge 20, EH/Ci/Mi regimen
Description: as §1, §2

[1] = test system: bladder cancer cell lines; test: Average cumulative cell survival (ACS) over the panel of cell lines tested; conditions: for ACS (%): eight cell lines, Table S3, ng/ml: Pi 40, Pa 160, EH 250, Ci 1500, Mi 200, 1=Ci/Mi, 2=EH/Ci/Mi, 3=Pa/Ci/Mi, 4=Pi/Ci/Mi; for ACS: four-fold dosed component drugs alone: Ci 6000 ng/mL, Mi 800 ng/mL, EH 1000 ng/mL (Table S4); for ACS (%) for cancer cells: seven cancer cell lines, ng/ml: EH 1000, Ci 6000, Mi 800, Pi 160, Pa 640, Ge 20, EH/Ci/Mi regimen
Description: as §1
The “Differential Evolution” algorithm guided experimental optimization (DE) consisted of three iterative operations: generating drug combinations of experimental testing, acquiring the efficacy of the generated drug combinations with biological assays and recalculating further improved drug combinations using a feedback search algorithm. This example first tested twenty drug combinations at randomized doses. These drug combinations were generated from a random integer matrix generator, coded in MATLAB™ language. These twenty drug combinations were then experimentally tested for cancer cell cytotoxicity. The experimental data were then subjected to calculation with a DE algorithm for new drug combinations based on three major mathematical calculations: “Mutation”, “Crossover” and “Selection”. The equations for each step can be found in the main test. The equations for each step are coded in MATLAB™ language.
as §3, with “combinations. Nine of the twenty combinations tested in the 1st round of iteration fell into this category (the lower half of Table 1).” for “combinations.”

Heat Shock pathway = test: Cignal Finder dual-luciferase pathway reporter, Heat Shock; design: key to Relative activity, Heat Shock reporter: firefly/renilla ratio, background (negative control) subtracted; conditions: for Relative activity, Heat Shock reporter: luc/Renluc relative to negative control reporter, single drug at 4 folds vs EH/Ci/Mi combination
Description: The pathway analysis was performed with Qiagen's Cignal Finder Pathway Reporter Array systems according to the manufacturer's instructions. The pathway-focused dual-luciferase reporter construct was a mixture of an inducible transcription factor responsive firefly luciferase reporter and constitutively expressing renilla construct. Transcriptional response element (TRE) sequence response elements to each specific transcriptional factor triggered by the different signaling pathways are positioned before the TATA box of firefly luciferase reporter gene. The extent of activity of the reporter reflects the level of activity of the particular signaling pathway. CMV controlled renilla expression vector is co-transfected into the cell as an internal control. Non-inducible reporter construct that lacks the transcriptional factor binding sequence and could not be induced by any transcription factors is used as a negative control. Cells transfected with CMV directed firefly luciferase reporter gene serve as a positive control. Briefly, cells seeded in 6-well plates were transfected with Cignal finder pathway arrays according to the manufacturer's instructions (Qiagen). Then cells were seeded onto 96-well plates. […] After 6 h of incubation with the different drugs at 37° C., cells were lysed and a dual luciferase assay (for firefly and renilla luciferase) was performed using a PromegaGloMax 20/20 illuminometer. The firefly luciferase activities were normalized over the renilla luciferase activities after background activity determined by luciferase activities of negative controls was subtracted. A triple test of cell survival under these drug doses was also performed by MTT assay following 18 h incubation at 37° C. […]

COc1cccc2c1C(=O)c1c(O)c3c(c(O)c1C2=O)C[C@@](O)(C(=O)CO)C[C@@H]3[C@@H]1C[C@H](N)[C@@H](O)[C@H](C)O1 [EH, (8R,10S)-10-((2S,4S,5R,6S)-4-amino-5-hydroxy-6-methyltetrahydro-2H-pyran-2-yl)-6,8,11-trihydroxy-8-(2-hydroxyacetyl)-1-methoxy-7,8,9,10-tetrahydrotetracene-5,12-dione]
Cell survival 72 hours (H-bc): 2.60%
ACS (%) (H-bc): 2.60%
Cell survival (%) (H-bc): 61.03%
Single drug 4X Cell Survival (%) (H-bc): 2.6%
Cell survival (%) (EJ): 56.55%
Single drug 4X Cell Survival (%) (EJ): 38.46%
Cell survival (%) (Biu87): 38.68%
Single drug 4X Cell Survival (%) (Biu87): 23.24%
Cell survival 72 hours (Biu87): 23.24%
ACS (%) (Biu87): 23.24%
Cell survival (%) (UM-UC-3): 43.54%
Single drug 4X Cell Survival (%) (UM-UC-3): 25.19%
ACS (%) (UM-UC-3): 25.19%
Cell survival 72 hours (UM-UC-3): 25.19%
Cell survival (%) (SCaBER): 38.31%
Single drug 4X Cell Survival (%) (SCaBER): 6.67%
ACS (%) [1]: 39.75%
ACS [1]: 9.11%
ACS (%) for cancer cells [1]: 16.60%
digitalized pathway activity, Heat Shock (Heat Shock pathway; 5637 cells): 0 (null (0) if neither of the above holds)
relative drug trigged pathway activity over the no-drug level, Heat Shock (Heat Shock pathway; 5637 cells): 1.04 fold
Relative activity, Heat Shock reporter (Heat Shock pathway; 5637 cells): 14.60
digitalized pathway activity, Heat Shock (Heat Shock pathway; Biu87 cells): 0 (null (0) if neither of the above holds)
relative drug trigged pathway activity over the no-drug level, Heat Shock (Heat Shock pathway; Biu87 cells): 1.06 fold
Relative activity, Heat Shock reporter (Heat Shock pathway; Biu87 cells): 2.01
digitalized pathway activity, Heat Shock (Heat Shock pathway; H-bc cells): 0 (null (0) if neither of the above holds)
relative drug trigged pathway activity over the no-drug level, Heat Shock (Heat Shock pathway; H-bc cells): 0.86 fold
Relative activity, Heat Shock reporter (Heat Shock pathway; H-bc cells): 3.13
digitalized pathway activity, Heat Shock (Heat Shock pathway; SV-HUC-1 cells): 0 (null (0) if neither of the above holds)
relative drug trigged pathway activity over the no-drug level, Heat Shock (Heat Shock pathway; SV-HUC-1 cells): 0.91 fold
Relative activity, Heat Shock reporter (Heat Shock pathway; SV-HUC-1 cells): 36.00
digitalized pathway activity, Heat Shock (Heat Shock pathway; UM-UC-3 cells): 0 (null (0) if neither of the above holds)
Relative activity, Heat Shock reporter (Heat Shock pathway; UM-UC-3 cells): 2.93
relative drug trigged pathway activity over the no-drug level, Heat Shock (Heat Shock pathway; Um-Uc-3 cells): 0.67 fold

COC12C(COC(N)=O)C3=C(C(=O)C(C)=C(N)C3=O)N1CC1NC12 (stereo not drawn) [Mi, [6-Amino-8a-methoxy-5-methyl-4,7-dioxo-1,1a,2,4,7,8,8a,8b-octahydroazireno [2′,3′:3,4]pyrrolo[1,2-a]indol-8-yl]methyl carbamate]
Cell survival 72 hours (H-bc): 81.16%
ACS (%) (H-bc): 81.16%
Cell survival (%) (H-bc): 91.67%
Single drug 4X Cell Survival (%) (H-bc): 81.16%
Cell survival (%) (EJ): 45.2%
Single drug 4X Cell Survival (%) (EJ): 28.67%
Cell survival (%) (Biu87): 42.05%
Single drug 4X Cell Survival (%) (Biu87): 21.74%
Cell survival 72 hours (Biu87): 21.74%
ACS (%) (Biu87): 21.74%
Cell survival (%) (UM-UC-3): 66.2%
Single drug 4X Cell Survival (%) (UM-UC-3): 54.74%
ACS (%) (UM-UC-3): 54.71%
Cell survival 72 hours (UM-UC-3): 54.71%
Cell survival (%) (SCaBER): 56.83%
Single drug 4X Cell Survival (%) (SCaBER): 41.97%
ACS (%) [1]: 56.85%
ACS [1]: 40.49%
ACS (%) for cancer cells [1]: 40.49%
digitalized pathway activity, Heat Shock (Heat Shock pathway; 5637 cells): 0 (null (0) if neither of the above holds)
relative drug trigged pathway activity over the no-drug level, Heat Shock (Heat Shock pathway; 5637 cells): 1.38 fold
Relative activity, Heat Shock reporter (Heat Shock pathway; 5637 cells): 19.47
relative drug trigged pathway activity over the no-drug level, Heat Shock (Heat Shock pathway; Biu87 cells): 4.54 fold
Relative activity, Heat Shock reporter (Heat Shock pathway; Biu87 cells): 8.60
relative drug trigged pathway activity over the no-drug level, Heat Shock (Heat Shock pathway; H-bc cells): 0.3 fold
Relative activity, Heat Shock reporter (Heat Shock pathway; H-bc cells): 1.12
digitalized pathway activity, Heat Shock (Heat Shock pathway; SV-HUC-1 cells): 0 (null (0) if neither of the above holds)
relative drug trigged pathway activity over the no-drug level, Heat Shock (Heat Shock pathway; SV-HUC-1 cells): 1.01 fold
Relative activity, Heat Shock reporter (Heat Shock pathway; SV-HUC-1 cells): 40.00
digitalized pathway activity, Heat Shock (Heat Shock pathway; UM-UC-3 cells): 0 (null (0) if neither of the above holds)
Relative activity, Heat Shock reporter (Heat Shock pathway; UM-UC-3 cells): 4.03
relative drug trigged pathway activity over the no-drug level, Heat Shock (Heat Shock pathway; Um-Uc-3 cells): 0.93 fold

Source: patent publication US10238688B2, “Combination therapies for bladder cancer” (GENEDIA BIOTECH CO. LTD., priority 2015, dated 2019)
